Consider 24 molecules from patent publication US9181259B2 (LEO PHARMA A/S, priority 2012, dated 2015).

For the assay, the target named is T1, NK1 receptor (Homo sapiens, UniProt P25103).
T1 construct: Measurement of NK1 Receptor Mediated Intracellular [Ca^2+]; Mobilization in U251 MG Cells Using FLIPR; endogenous in cells; host or cells: U251 MG cells
In words: NK1 receptor mediated intracellular [Ca2+] mobilization in U251 MG cells using FLIPR. In kind it is cell-based. The note with it: antagonist potency against Substance P (EC80), normalized to 100 nM Aprepitant, read-out: U251MG (FLIPR pIC50) (converted). Here is the method:
Measurement of NK1 Receptor Mediated Intracellular [Ca^2+] Mobilization in U251 MG Cells Using FLIPR
U251 MG cells were seeded into black walled clear-bottom 384-well plates (Greiner Bio-One GmbH, Frickenhausen, Germany) at a density of 15,000 cells/well in 50 μl culture medium and cultured overnight in a 37° C. 5% CO2 incubator. The cells were then loaded with the calcium sensitive dye Fluo-4 (Invitrogen) at 1 μM in buffer, containing 0.04%
Pluronic F-127 (Sigma-Aldrich), and 2.5 mM probenecid (Sigma-Aldrich) for 60 min in a humidified atmosphere of 5% CO2. Thereafter, cells were washed three times in washing buffer containing 20 mM HEPES and 2.5 mM probenecid pH 7.3. Serial dilutions of test compounds in assay buffer containing 2% dimethyl sulfoxide (final concentration in the cell plate is 0.5% DMSO) and/or agonist were then automatically pipetted into each test well, and the peak fluorescence intensity was recorded (lex, 488 nm; lem, 540 nm) by the FLIPR instrument (Molecular Devices) for approximately 5 min. To measure antagonist potency, cell plates were first incubated with the test compound and intracellular fluorescence recorded for 5 minutes to check a potential agonist effect of the test compound. Cell plates were quickly removed from the FLIPR instrument and incubated for additional 10 minutes at 37° C. before being moved back to the FLIPR instrument for Substance P (EC80) addition. The response was measured as the peak relative fluorescence change after agonist addition.
The IC50 value is defined as the molar concentration of a test compound that produces a response midway between the fitted top and the fitted bottom. pIC50=−log IC50
Formula is listed as follows: Fit(% Effect calculated)=(A+((B−A)/(1+((C/X)^D)))) • A: bottom value • B: top value • C: […] • D: Hill slope coefficient
Ref: Sullivan E, Tucker E M, and Dale I L. Measurement of [Ca^2+] using the Fluorometric Imaging Plate Reader (FLIPR). Methods Mol Biol 114:125-133, 1999.
Compounds of the present invention were tested according to example 120.

Molecules are shown by their SMILES. Where a name gives a salt, the structure may show the parent alone.

T1 sequence (P25103 whole entry): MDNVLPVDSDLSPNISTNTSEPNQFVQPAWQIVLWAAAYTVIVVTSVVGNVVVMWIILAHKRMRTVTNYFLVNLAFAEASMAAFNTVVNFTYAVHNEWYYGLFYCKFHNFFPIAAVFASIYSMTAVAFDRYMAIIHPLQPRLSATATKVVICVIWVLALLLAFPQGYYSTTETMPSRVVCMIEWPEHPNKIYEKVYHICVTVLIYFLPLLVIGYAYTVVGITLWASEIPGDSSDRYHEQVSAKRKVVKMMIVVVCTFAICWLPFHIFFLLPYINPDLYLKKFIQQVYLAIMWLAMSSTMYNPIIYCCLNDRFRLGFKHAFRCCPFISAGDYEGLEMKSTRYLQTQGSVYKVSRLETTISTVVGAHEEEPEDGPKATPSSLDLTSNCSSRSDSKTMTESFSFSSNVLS

With `COC(=O)C1(C)CC2C(c3ccccc3C)N(C(=O)N(C)Cc3cc(C(F)(F)F)cc(C(F)(F)F)c3)CCN2C1=O` (single isomer, unassigned) [Compound 15, Methyl 2-({[3,5-bis(trifluoromethyl)phenyl]methyl}(methyl)carbamoyl)-7-methyl-1-(2-methylphenyl)-6-oxo-octahydropyrrolo{1,2-a}piperazine-7-carboxylate], the IC50 was 0.1 nM.

Turning to `Cc1ccccc1[C@H]1[C@@H]2CC(CCO)(CCO)C(=O)N2CCN1C(=O)N(C)Cc1cccc(C(F)(F)F)c1` [Compound 80, (1S,8aS)-7,7-bis(2-hydroxyethyl)-N-methyl-6-oxo-1-o-tolyl-N-(3-(trifluoromethyl)benzyl)hexahydropyrrolo[1,2-a]pyrazine-2(1H)-carboxamide], the IC50 is 0.468 nM.

As to `COC(=O)C1(C)CC2C(c3ccccc3C)N(C(=O)N(C)Cc3cc(C(F)(F)F)cc(C(F)(F)F)c3)CCN2C1=O` (single isomer, unassigned) [Compound 12, Methyl 2-({[3,5-bis(trifluoromethyl)phenyl]methyl}(methyl)carbamoyl)-7-methyl-1-(2-methylphenyl)-6-oxo-octahydropyrrolo{1,2-a}piperazine-7-carboxylate], the IC50 was 1.78 nM.

As to `Cc1ccccc1C1C2CC3(CCN(C)CC3)C(=O)N2CCN1C(=O)N(C)Cc1cc(C(F)(F)F)cc(C(F)(F)F)c1` (single isomer, unassigned) [Compound 46, N-{[3,5-bis(trifluoromethyl)phenyl]methyl}-N,1-dimethyl-4′-(2-methylphenyl)-1′-oxo-hexahydro-1′H-spiro[piperidine-4,2′-pyrrolo[1,2-a]piperazine]-5′-carboxamide], the IC50 is 4.57 nM.

As for `Cc1ccccc1C1C2CC(CN3CCOCC3)C(=O)N2CCN1C(=O)N(C)Cc1cc(C(F)(F)F)cc(C(F)(F)F)c1` (single isomer, unassigned) [Compound 40], the IC50 is 7.76 nM.

As for `Cc1ccccc1C1C2CCC(=O)N2CCN1C(=O)N(C)Cc1cc(C(F)(F)F)cc(C(F)(F)F)c1` (racemic) [Compound 16, N-{[3,5-bis(trifluoromethyl)phenyl]methyl}-N-methyl-1-(2-methylphenyl)-6-oxo-octahydropyrrolo[1,2-a]piperazine-2-carboxamide], the IC50 is 0.229 nM.

With `Cc1ccccc1C1C2CC(CO)CN2CCN1C(=O)N(C)[C@H](C)c1cc(C(F)(F)F)cc(C(F)(F)F)c1` (single isomer, unassigned) [Compound 68], the IC50 is 4.47 nM.

As for `C=C1CC2C(c3ccccc3C)N(C(=O)N(C)Cc3cc(C(F)(F)F)cc(C(F)(F)F)c3)CCN2C1=O` (single isomer, unassigned) [Compound 32, N-{[3,5-bis(trifluoromethyl)phenyl]methyl}-N-methyl-7-methylidene-1-(2-methylphenyl)-6-oxo-octahydropyrrolo[1,2-a]piperazine-2-carboxamide], the IC50 was 0.437 nM.

Take `Cc1ccccc1C1C2CC(CCO)(CCO)C(=O)N2CCN1C(=O)N(C)Cc1cc(C(F)(F)F)cc(C(F)(F)F)c1` (racemic) [Compound 42, N-{[3,5-bis(trifluoromethyl)phenyl]methyl}-7,7-bis(2-hydroxyethyl)-N-methyl-1-(2-methylphenyl)-6-oxo-octahydropyrrolo[1,2-a]piperazine-2-carboxamide]: the IC50 was 0.0955 nM.

On to `Cc1ccccc1C1C2CC(CO)C(=O)N2CCN1C(=O)N(C)Cc1cc(C(F)(F)F)cc(C(F)(F)F)c1` (single isomer, unassigned) [Compound 19, N-{[3,5-bis(trifluoromethyl)phenyl]methyl}-7-(hydroxymethyl)-N-methyl-1-(2-methylphenyl)-6-oxo-octahydropyrrolo[1,2-a]piperazine-2-carboxamide], for which the IC50 is 3.72 nM.

For the molecule `Cc1ccccc1C1C2CCC(=O)N2CCN1C(=O)N(C)Cc1cccc(C(F)(F)F)c1` (single isomer, unassigned) [Compound 5, N-methyl-1-(2-methylphenyl)-6-oxo-N-{[3-(trifluoromethyl)phenyl]methyl}-octahydropyrrolo[1,2-a]piperazine-2-carboxamide], the IC50 is 7.41 nM.

Regarding `Cc1ccccc1[C@@H]1[C@H]2CCC(=O)N2CCN1C(=O)N(C)[C@H](C)c1cc(C(F)(F)F)cc(C(F)(F)F)c1` (single isomer, unassigned) [Compound 10], the IC50 is 12.9 nM.

With `Cc1ccccc1[C@H]1[C@@H]2CC(CCO)(CCO)C(=O)N2CCN1C(=O)N(C)C(CCO)c1cc(C(F)(F)F)cc(C(F)(F)F)c1` (single isomer, unassigned) [Compound 82], the IC50 was 0.112 nM.

Consider `Cc1ccccc1C1C2CC(C)(C(=O)O)C(=O)N2CCN1C(=O)N(C)Cc1cc(C(F)(F)F)cc(C(F)(F)F)c1` (stereo not drawn) [Compound 8, 2-({[3,5-bis(trifluoromethyl)phenyl]methyl}(methyl)carbamoyl)-7-methyl-1-(2-methylphenyl)-6-oxo-octahydropyrrolo[1,2-a]piperazine-7-carboxylic acid], for which the IC50 is 61.7 nM.

With `Cc1ccccc1C1C2CC(CCO)(CCO)C(=O)N2CCN1C(=O)N(C)[C@H](C)c1cc(C(F)(F)F)cc(C(F)(F)F)c1` (single isomer, unassigned) [Compound 53], the IC50 was 2.45 nM.

Consider `Cc1ccccc1C1C2CC(CCO)C(=O)N2CCN1C(=O)N(C)C(CCO)c1cc(C(F)(F)F)cc(C(F)(F)F)c1` (single isomer, unassigned) [Compound 34, N-{1-[3,5-bis(trifluoromethyl)phenyl]-3-hydroxypropyl}-7-(2-hydroxyethyl)-N-methyl-1-(2-methylphenyl)-6-oxo-octahydropyrrolo[1,2-a]piperazine-2-carboxamide], for which the IC50 was 15.5 nM.

`Cc1ccccc1C1C2CC(CO)CN2CCN1C(=O)N(C)Cc1cc(C(F)(F)F)cc(C(F)(F)F)c1` (single isomer, unassigned) [Compound 27, N-{[3,5-bis(trifluoromethyl)phenyl]methyl}-7-(hydroxymethyl)-N-methyl-1-(2-methylphenyl)-octahydropyrrolo[1,2-a]piperazine-2-carboxamide; methanesulfonic acid salt]: the IC50 is 58.9 nM.

As for `Cc1ccccc1C1C2CC(CO)C(=O)N2CCN1C(=O)N(C)[C@H](C)c1cc(C(F)(F)F)cc(C(F)(F)F)c1` (single isomer, unassigned) [Compound 57], the IC50 is 1.51 nM.

On to `Cc1ccccc1C1C2CC(CCO)(CCO)CN2CCN1C(=O)N(C)[C@H](C)c1cc(C(F)(F)F)cc(C(F)(F)F)c1` (single isomer, unassigned) [Compound 59], for which the IC50 is 60.3 nM.

Turning to `Cc1ccccc1[C@H]1[C@@H]2CC(CCO)(CCO)C(=O)N2CCN1C(=O)N(C)[C@@H](CO)c1cc(C(F)(F)F)cc(C(F)(F)F)c1` [Compound 87, (1S,8aS)-N-((R)-1-(3,5-bis(trifluoromethyl)phenyl)-2-hydroxyethyl)-7,7-bis(2-hydroxyethyl)-N-methyl-6-oxo-1-o-tolylhexahydropyrrolo[1,2-a]pyrazine-2(1H)-carboxamide], the IC50 is 0.204 nM.

For `Cc1ccccc1C1C2CCC(=O)N2CCN1C(=O)N(C)Cc1cc(F)cc(C(F)(F)F)c1` (single isomer, unassigned) [Compound 4, N-{[3-fluoro-5-(trifluoromethyl)phenyl]methyl}-N-methyl-1-(2-methylphenyl)-6-oxo-octahydropyrrolo[1,2-a]piperazine-2-carboxamide], the IC50 is 81.3 nM.

With `Cc1ccccc1C1C2CC(CN3CCOCC3)C(=O)N2CCN1C(=O)N(C)Cc1cc(C(F)(F)F)cc(C(F)(F)F)c1` (single isomer, unassigned) [Compound 39], the IC50 was 2.88 nM.

As for `Cc1ccccc1C1C2CC(CCO)CN2CCN1C(=O)N(C)C(CCO)c1cc(C(F)(F)F)cc(C(F)(F)F)c1` (stereo not drawn) [Compound 36, N-{1-[3,5-bis(trifluoromethyl)phenyl]-3-hydroxypropyl}-7-(2-hydroxyethyl)-N-methyl-1-(2-methylphenyl)-octahydropyrrolo[1,2-a]piperazine-2-carboxamide], the IC50 is 0.724 nM.

Regarding `COC(=O)C1(C)CC2C(c3ccccc3C)N(C(=O)N(C)Cc3cc(C(F)(F)F)cc(C(F)(F)F)c3)CCN2C1=O` (single isomer, unassigned) [Compound 13, Methyl 2-({[3,5-bis(trifluoromethyl)phenyl]methyl}(methyl)carbamoyl)-7-methyl-1-(2-methylphenyl)-6-oxo-octahydropyrrolo{1,2-a}piperazine-7-carboxylate], the IC50 was 4.17 nM.
